EP4617278A1, “NUCLEOTIDE ANALOG, AND COMPOSITION AND USE THEREOF” (priority 2022, dated 2024)

The compounds below were run on SARS-CoV-2 replicon. Settings: read-out: SARS-CoV-2 Replicon (Huh-7cell) EC50.
Assay type: cell-based

| Compound | EC50 [nM] |
| --- | --- |
| CCCCC/C=C\C/C=C\CCCCCCCCOC(=O)[C@H](C)NP(=O)(OCOC(=O)C(C)(C)C)OC[C@H]1O[C@@](C#N)(c2ccc3c(N)ncnn23)[C@H](OC(=O)C(C)C)[C@@H]1OC(=O)C(C)C (stereo partly drawn) [Compound 51, (2R,3R,4R,5R)-2-(4-aminopyrrolo[2,1-f][1,2,4]triazin-7-yl)-2-cyano-5-((((((S)-1-(((9Z,12Z)-octadeca-9,12-dien-1-yl)oxy)-1-oxopropan-2-yl)amino)((pivaloyloxy)methoxy)phosphoryl)oxy)methyl)tetrahydrofuran-3,4-diyl bis(2-methylpropionate)] | 50 to 500 |
| CCCCC/C=C\C/C=C\CCCCCCCCOC(=O)[C@H](C)N[P@](=O)(OCOC(=O)OC(C)C)OC[C@H]1O[C@@](C#N)(c2ccc3c(N)ncnn23)[C@H](OC(=O)C(C)C)[C@@H]1OC(=O)C(C)C [Compound 52a, (2R,3R,4R,5R)-2-(4-aminopyrrolo[2,1-f][1,2,4]triazin-7-yl)-2-cyano-5-((((R)-(((isopropoxycarbonyl)oxy)methoxy)(((S)-1-(((9Z,12Z)-octadeca-9,12-dien-1-yl)oxy)-1-oxopropan-2-yl)amino)phosphoryl)oxy)methyl)tetrahydrofuran-3,4-diyl bis(2-methylpropionate)] | 50 to 500 |
| CCCCC/C=C\C/C=C\CCCCCCCCOC(=O)[C@H](C)N[P@@](=O)(OCOC(=O)OC(C)C)OC[C@H]1O[C@@](C#N)(c2ccc3c(N)ncnn23)[C@H](OC(=O)C(C)C)[C@@H]1OC(=O)C(C)C [Compound 52b, (2R,3R,4R,5R)-2-(4-aminopyrrolo[2,1-f][1,2,4]triazin-7-yl)-2-cyano-5-((((S)-(((isopropoxycarbonyl)oxy)methoxy)(((S)-1-(((9Z,12Z)-octadeca-9,12-dien-1-yl)oxy)-1-oxopropan-2-yl)amino)phosphoryl)oxy)methyl)tetrahydrofuran-3,4-diyl bis(2-methylpropionate)] | 50 to 500 |
| CCC(CC)COC(=O)[C@H](Cc1ccccc1)N[P@@](=O)(OC[C@H]1O[C@@](C#N)(c2ccc3c(N)ncnn23)[C@H](OC(=O)C(C)C)[C@@H]1OC(=O)C(C)C)Oc1ccc(C(C)(C)C)cc1 [Compound 53a, (2R,3R,4R,5R)-2-(4-aminopyrrolo[2,1-f][1,2,4]triazin-7-yl)-2-cyano-5-((((((S)-1-(2-ethylbutoxy)-1-oxo-3-phenylpropan-2-yl)amino)((R)-4-tert-butylphenoxy)phosphoryl)oxy)methyl)tetrahydrofuran-3,4-diyl bis(2-methylpropionate)] | 50 to 500 |
| CCC(CC)COC(=O)[C@H](Cc1ccccc1)N[P@](=O)(OC[C@H]1O[C@@](C#N)(c2ccc3c(N)ncnn23)[C@H](OC(=O)C(C)C)[C@@H]1OC(=O)C(C)C)Oc1ccc(C(C)(C)C)cc1 [Compound 53b, (2R,3R,4R,5R)-2-(4-aminopyrrolo[2,1-f][1,2,4]triazin-7-yl)-2-cyano-5-((((((S)-1-(2-ethylbutoxy)-1-oxo-3-phenylpropan-2-yl)amino)((S)-4-tert-butylphenoxy)phosphoryl)oxy)methyl)tetrahydrofuran-3,4-diyl bis(2-methylpropionate)] | 10 to 50 |
| CC(C)C(=O)O[C@H]1[C@@H](OC(=O)C(C)C)[C@](C#N)(c2ccc3c(N)ncnn23)O[C@@H]1CO[P@](=O)(N[C@@H](CC(=O)OC1CCC1)C(=O)OC1CCC1)Oc1ccccc1 [Compound 54a, (2R,3R,4R,5R)-2-(4-aminopyrrolo[2,1-f][1,2,4]triazin-7-yl)-2-cyano-5-((((R)-(((S)-1,4-dicyclobutoxy-1,4-dioxobutan-2-yl)amino)(phenoxy)phosphoryl)oxy)methyl)tetrahydrofuran-3,4-diyl bis(2-methylpropionate)] | 10 to 50 |
| CC(C)C(=O)O[C@H]1[C@@H](OC(=O)C(C)C)[C@](C#N)(c2ccc3c(N)ncnn23)O[C@@H]1CO[P@@](=O)(N[C@@H](CC(=O)OC1CCC1)C(=O)OC1CCC1)Oc1ccccc1 [Compound 54b, (2R,3R,4R,5R)-2-(4-aminopyrrolo[2,1-f][1,2,4]triazin-7-yl)-2-cyano-5-((((S)-(((S)-1,4-dicyclobutoxy-1,4-dioxobutan-2-yl)amino)(phenoxy)phosphoryl)oxy)methyl)tetrahydrofuran-3,4-diyl bis(2-methylpropionate)] | < 5 |
| CCC(CC)COC(=O)C[C@H](N[P@@](=O)(OC[C@H]1O[C@@](C#N)(c2ccc3c(N)ncnn23)[C@H](OC(=O)C(C)C)[C@@H]1OC(=O)C(C)C)Oc1ccccc1)C(=O)OCC(CC)CC [Compound 62a, (2R,3R,4R,5R)-2-(4-aminopyrrolo[2,1-f][1,2,4]triazin-7-yl)-2-cyano-5-((((R)-(((S)-1,4-bis(2-ethylbutoxy)-1,4-dioxobutan-2-yl)amino)(phenoxy)phosphoryl)oxy)methyl)tetrahydrofuran-3,4-diyl bis(2-methylpropionate)] | 50 to 500 |
| CCC(CC)COC(=O)C[C@H](N[P@](=O)(OC[C@H]1O[C@@](C#N)(c2ccc3c(N)ncnn23)[C@H](OC(=O)C(C)C)[C@@H]1OC(=O)C(C)C)Oc1ccccc1)C(=O)OCC(CC)CC [Compound 62b, (2R,3R,4R,5R)-2-(4-aminopyrrolo[2,1-f][1,2,4]triazin-7-yl)-2-cyano-5-((((S)-(((S)-1,4-bis(2-ethylbutoxy)-1,4-dioxobutan-2-yl)amino)(phenoxy)phosphoryl)oxy)methyl)tetrahydrofuran-3,4-diyl bis(2-methylpropionate)] | 10 to 50 |
| CC(C)C(=O)O[C@H]1[C@@H](OC(=O)C(C)C)[C@](C#N)(c2ccc3c(N)ncnn23)O[C@@H]1CO[P@](=O)(N[C@@H](Cc1ccccc1)C(=O)OC1CCC1)Oc1ccccc1 [Compound 63a] | 10 to 50 |
| CC(C)C(=O)O[C@H]1[C@@H](OC(=O)C(C)C)[C@](C#N)(c2ccc3c(N)ncnn23)O[C@@H]1CO[P@@](=O)(N[C@@H](Cc1ccccc1)C(=O)OC1CCC1)Oc1ccccc1 [Compound 63b, (2R,3R,4R,5R)-2-(4-aminopyrrolo[2,1-f][1,2,4]triazin-7-yl)-2-cyano-5-((((S)-(((S)-1-cyclobutoxy-1-oxo-3-phenylpropan-2-yl)amino)(phenoxy)phosphoryl)oxy)methyl)tetrahydrofuran-3,4-diyl bis(2-methylpropionate)] | < 5 |
| COC(C)(C)COC(=O)[C@H](Cc1ccccc1)N[P@@](=O)(OC[C@H]1O[C@@](C#N)(c2ccc3c(N)ncnn23)[C@H](OC(=O)C(C)C)[C@@H]1OC(=O)C(C)C)Oc1ccccc1 [Compound 64a, (2R,3R,4R,5R)-2-(4-aminopyrrolo[2,1-f][1,2,4]triazin-7-yl)-2-cyano-5-((((R)-(((S)-1-(2-methoxy-2-methylpropoxy)-1-oxo-3-phenylpropan-2-yl)amino)(phenoxy)phosphoryl)oxy)methyl)tetrahydrofuran-3,4-diyl bis(2-methylpropionate)] | < 5 |
| COC(C)(C)COC(=O)[C@H](Cc1ccccc1)N[P@](=O)(OC[C@H]1O[C@@](C#N)(c2ccc3c(N)ncnn23)[C@H](OC(=O)C(C)C)[C@@H]1OC(=O)C(C)C)Oc1ccccc1 [Compound 64b, (2R,3R,4R,5R)-2-(4-aminopyrrolo[2,1-f][1,2,4]triazin-7-yl)-2-cyano-5-((((S)-(((S)-1-(2-methoxy-2-methylpropoxy)-1-oxo-3-phenylpropan-2-yl)amino)(phenoxy)phosphoryl)oxy)methyl)tetrahydrofuran-3,4-diyl bis(2-methylpropionate)] | < 5 |
| CC(C)OC(=O)OCOP(=O)(OCOC(=O)OC(C)C)OC[C@H]1O[C@@](C#N)(c2c(Br)cc3c(N)ncnn23)[C@H](OC(=O)C(C)C)[C@@H]1OC(=O)C(C)C [Compound 65, (2R,3R,4R,5R)-2-(4-amino-6-bromopyrrolo[2,1-f][1,2,4]triazin-7-yl)-5-(((bis(((isopropoxycarbonyl)oxy)methoxy)phosphoryl)oxy)methyl)-2-cyanotetrahydrofuran-3,4-diyl bis(2-methylpropionate)] | 50 to 500 |
| (2R,3R,4R,5R)-2-(4-aminopyrrolo[2,1-f][1,2,4]triazin-7-yl)-2-cyano-5-((((R)-(((S)-1-(2-ethylbutoxy)-1-oxopropan-2-yl)amino)(((isopropoxycarbonyl)oxy)methoxy)phosphoryl)oxy)methyl)tetrahydrofuran-3,4-diyl diacetate [Compound 5a] | 50 to 500 |
| (2R,3R,4R,5R)-2-(4-aminopyrrolo[2,1-f][1,2,4]triazin-7-yl)-2-cyano-5-((((R)-(((S)-1-isopropoxy-1-oxopropan-2-yl)amino)(((isopropoxycarbonyl)oxy)methoxy)phosphoryl)oxy)methyl)tetrahydrofuran-3,4-diyl diacetate [Compound 1a] | 10 to 50 |
| (2R,3R,4R,5R)-2-(4-aminopyrrolo[2,1-f][1,2,4]triazin-7-yl)-2-cyano-5-((((S)-(((S)-1-(2-ethylbutoxy)-1-oxopropan-2-yl)amino)(((isopropoxycarbonyl)oxy)methoxy)phosphoryl)oxy)methyl)tetrahydrofuran-3,4-diyl diacetate [Compound 5b] | 5 to 10 |
| (2R,3R,4R,5R)-2-(4-aminopyrrolo[2,1-f][1,2,4]triazin-7-yl)-2-cyano-5-((((S)-(((S)-1-isopropoxy-1-oxopropan-2-yl)amino)(((isopropoxycarbonyl)oxy)methoxy)phosphoryl)oxy)methyl)tetrahydrofuran-3,4-diyl diacetate [Compound 1b] | 5 to 10 |
| (2R,3R,4R,5R)-2-(4-aminopyrrolo[2,1-f][1,2,4]triazin-7-yl)-5-((((bis(((isopropoxycarbonyl)oxy)methoxy))phosphoryl)oxy)methyl)-2-cyanotetrahydrofuran-3,4-diyldiisopropyl bis(carbonate) [Compound 28] | 10 to 50 |
